In patent US20230117034A1, “PYRAZOLOTRIAZINES” (Bayer Aktiengesellschaft, priority 2019, published 2023):

Tests used:
[1] = target: CDK12/CycK (Homo sapiens, UniProt Q9NYV4); test: CDK12/CycK high ATP kinase assay (TR-FRET, 2 mM ATP); assay type: biochemical; settings: 2 mM ATP (high ATP); median; read-out: CDK12/CyclinK, 2 mM ATP (high ATP), IC50-[mol/l] (median)
Outline: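 His-tagged human CDK12/CycK (~0.75 nM) pre-incubated 15 min with compound, then 60 min at 22 °C with 2 mM ATP and 1 µM biotinylated peptide (HEPES pH 7.5, 20 mM MgCl2). EDTA stop; phospho-Ser62 antibody/Eu anti-rabbit and streptavidin-XL665 TR-FRET, 665/620 nm ratio normalised to give IC50.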

[2] = system: BRCA1 mRNA expression in MDA-MB-231 cells; test: qRT-PCR assay: BRCA1 mRNA expression in MDA-MB-231; assay type: cell-based, human; settings: Homo sapiens, MDA-MB-231, Inhibition of BRCA1 mRNA expression in MDA-MB-231 cells; median; read-out: RTqPCR-MDA-MB-231, IC50, BRCA1 (median)
Outline: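 MDA-MB-231 cells, 200,000/well, treated 24 h after plating with continuous 24 h compound exposure. RNA extracted, 600 ng reverse-transcribed, BRCA1 measured by RT-qPCR normalized to GAPDH.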

[3] = system: MDA-MB-231, human breast cancer cells; test: Proliferation assay MDA-MB-231 (crystal violet, 4 days); assay type: cell-based; settings: Homo sapiens, MDA-MB-231, 96 h, MDA-MB-231 cells, median, read-out: Prolif-MDA MB-231, IC50-[mol/l] (median)
Outline: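 CAL-120 or MDA-MB-231 cells grown 24 h, then exposed 4 days to compound (0.01–10 micromol/L, 0.1% DMSO). Crystal violet staining, absorbance at 595 nm, normalised to a zero-point plate (0%) and untreated cells (100%); IC50 by 4-parameter fit.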

Sequence of CDK12/CycK (Q9NYV4 with tags, fused parts or gaps): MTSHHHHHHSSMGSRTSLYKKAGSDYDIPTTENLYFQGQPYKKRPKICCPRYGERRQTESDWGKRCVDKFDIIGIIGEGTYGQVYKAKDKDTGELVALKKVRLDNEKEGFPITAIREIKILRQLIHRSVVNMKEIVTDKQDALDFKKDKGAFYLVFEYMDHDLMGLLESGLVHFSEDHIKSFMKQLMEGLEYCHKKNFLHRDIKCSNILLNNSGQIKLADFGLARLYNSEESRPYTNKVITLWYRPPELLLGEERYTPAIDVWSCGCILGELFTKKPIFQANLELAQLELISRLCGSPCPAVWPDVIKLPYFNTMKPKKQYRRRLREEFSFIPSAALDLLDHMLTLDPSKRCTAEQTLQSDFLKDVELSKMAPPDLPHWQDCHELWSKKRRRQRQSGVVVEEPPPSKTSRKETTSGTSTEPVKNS
Sequence of CDK12/CycK (O75909 1-300 partner limits assumed): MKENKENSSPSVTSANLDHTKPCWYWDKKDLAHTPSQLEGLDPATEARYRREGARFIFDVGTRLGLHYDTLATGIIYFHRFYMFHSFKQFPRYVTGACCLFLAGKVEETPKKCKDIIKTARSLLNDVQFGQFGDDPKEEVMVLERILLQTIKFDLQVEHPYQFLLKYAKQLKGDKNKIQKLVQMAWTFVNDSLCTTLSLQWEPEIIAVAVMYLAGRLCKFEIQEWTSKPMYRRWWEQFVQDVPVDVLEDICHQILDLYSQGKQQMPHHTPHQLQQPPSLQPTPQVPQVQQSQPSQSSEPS

Structure (SMILES) | IC50 [1] | IC50 [2] | IC50 [3]
CN1CCN(c2nc(NCc3nc4cc(C(F)(F)F)ccc4[nH]3)n3ncc(Br)c3n2)CC1 [Example 344, 8-bromo-2-(4-methylpiperazin-1-yl)-N-{[5-(trifluoromethyl)-1H-benzimidazol-2-yl]methyl}pyrazolo[1,5-a][1,3,5]triazin-4-amine] | 8370 nM | 2.34 nM | 4.82 nM
Clc1cc2nc(CNc3nc(N4CC5CCC(C4)N5)nc4c(C5CC5)cnn34)[nH]c2cc1Cl [Example 324, 8-cyclopropyl-2-(3,8-diazabicyclo[3.2.1]octan-3-yl)-N-[(5,6-dichloro-1H-benzimidazol-2-yl)methyl]pyrazolo[1,5-a][1,3,5]triazin-4-amine] | 859 nM | 8.86 nM | 1.56 nM
CC(C)c1cnn2c(NCc3ncc(-c4ccccc4)[nH]3)nc(N3CCN(C)CC3)nc12 [Example 31, 2-(4-methylpiperazin-1-yl)-N-[(5-phenyl-1H-imidazol-2-yl)methyl]-8-(propan-2-yl)pyrazolo[1,5-a][1,3,5]triazin-4-amine] | 13600 nM | 15 nM | 49.8 nM
CN(CC(C)(C)O)c1nc(NCc2nc3cc(C(F)(F)F)ccc3[nH]2)n2ncc(Br)c2n1 [Example 345, 1-{[8-bromo-4-({[5-(trifluoromethyl)-1H-benzimidazol-2-yl]methyl}amino)pyrazolo[1,5-a][1,3,5]triazin-2-yl](methyl)amino}-2-methylpropan-2-ol] | 661 nM | 2.83 nM | 3.44 nM
Cc1cc2nc(CNc3nc(N4CC5CCC(C4)N5)nc4c(C5CC5)cnn34)[nH]c2cc1C [Example 326, 8-cyclopropyl-2-(3,8-diazabicyclo[3.2.1]octan-3-yl)-N-[(5,6-dimethyl-1H-benzimidazol-2-yl)methyl]pyrazolo[1,5-a][1,5]triazin-4-amine] | 942 nM | 1.63 nM | 1.57 nM
Fc1cccc2[nH]c(CNc3nc(N4CC5CCC(C4)N5)nc4c(Cl)cnn34)nc12 [Example 363, 8-chloro-2-(3,8-diazabicyclo[3.2.1]octan-3-yl)-N-[(4-fluoro-1H-benzimidazol-2-yl)methyl]pyrazolo[1,5-a][1,3,5]triazin-4-amine] | 3310 nM | 22.5 nM | 34.6 nM

Results, then the molecule that gave them:

IC50 [1] | IC50 [2] | IC50 [3] | Structure (SMILES)
3060 nM | 1.27 nM | 3.33 nM | CN1CCN(c2nc(NCc3nc4c(F)c(Cl)ccc4[nH]3)n3ncc(Br)c3n2)CC1 [Example 373, 8-bromo-N-[(5-chloro-4-fluoro-1H-benzimidazol-2-yl)methyl]-2-(4-methylpiperazin-1-yl)pyrazolo[1,5-a][1,3,5]triazin-4-amine]
155 nM | 2.6 nM | 3.62 nM | CN(CC(C)(C)O)c1nc(NCc2nc3c(F)c(Cl)ccc3[nH]2)n2ncc(Br)c2n1 [Example 374, 1-[(8-bromo-4-{[(5-chloro-4-fluoro-1H-benzimidazol-2-yl)methyl]amino}pyrazolo[1,5-a][1,3,5]triazin-2-yl)(methyl)amino]-2-methylpropan-2-ol]
5250 nM | 7.36 nM | 7.8 nM | CN1CCN(c2nc(NCc3nc4c(F)c(Cl)ccc4[nH]3)n3ncc(C4CC4)c3n2)CC1 [Example 371, N-[(5-chloro-4-fluoro-1H-benzimidazol-2-yl)methyl]-8-cyclopropyl-2-(4-methylpiperazin-1-yl)pyrazolo[1,5-a][1,3,5]triazin-4-amine]
13100 nM | 26.4 nM | 33.5 nM | CN1CCN(c2nc(NCc3nc4c(F)cccc4[nH]3)n3ncc(Cl)c3n2)CC1.O=CO [Example 362, formic acid 8-chloro-N-[(4-fluoro-1H-benzimidazol-2-yl)methyl]-2-(4-methylpiperazin-1-yl)pyrazolo[1,5-a][1,3,5]triazin-4-amine]
